Positions of bridges follow the written chain, without caps; N, C: chain ends. Non-standard residues stand in square brackets, D forms with d. Residues, ends and D or L forms follow the SMILES beside them.
Tested on: Cells derived from six prolactin-secreting pituitary adenomas
Assay: Prolactin secretion from cultured prolactinoma cells (immunoradiometric assay of PRL in medium)
Format: cell-based, human
Conditions: for effect on prolactin release (in words): adenomatous cell cultures of tumor 1, 3 hours; for response of prolactin secretion (in words): cells from the four large tumors (tumors 1, 2, 3 and 4); for effect on prolactin production (in words) / suppressed prolactin release: tumor 4 cell cultures; for suppressed prolactin release: p<0.05

SMILES | effect on prolactin release (in words) | response of prolactin secretion (in words) | effect on prolactin production (in words) | Prolactin release inhibited versus controls (tumor 2 cell cultures, 10 nM, p < 0.0005) [%] | suppressed prolactin (tumor 3 cell cultures, 10 nM and 100 nM, dose dependent, p < 0.05) | suppressed prolactin release
CC[C@@H]1NC(=O)[C@H](CCCCN)NC(=O)[C@@H](Cc2c[nH]c3ccccc23)NC(=O)[C@H](Cc2ccc(O)cc2)NC(=O)[C@@H](NC(=O)[C@@H](Cc2ccccc2)NS(=O)(=O)CCN2CCN(CCO)CC2)CSSC[C@@H](C(=O)N[C@H](C(N)=O)[C@@H](C)O)NC1=O [BIM-23197] | did not affect prolactin release | failed to respond | modestly stimulated prolactin production | – | – | –
CC(C)[C@@H]1NC(=O)[C@H](CCCCN)NC(=O)[C@@H](Cc2c[nH]c3ccccc23)NC(=O)[C@H](Cc2ccc(O)cc2)NC(=O)[C@@H](NC(=O)[C@H](N)Cc2ccc3ccccc3c2)CSSC[C@@H](C(=O)N[C@H](C(N)=O)[C@@H](C)O)NC1=O [Lanreotide] | did not affect prolactin release | failed to respond | – | – | – | –
CC[C@@H]1NC(=O)[C@H](CCCCN)NC(=O)[C@@H](Cc2c[nH]c3ccccc23)NC(=O)[C@H](Cc2ccc(O)cc2)NC(=O)[C@@H](NC(=O)[C@H](N)Cc2ccccc2)CSSC[C@@H](C(=O)N[C@H](C(N)=O)[C@@H](C)O)NC1=O [BIM-23023] | did not affect prolactin release | – | – | – | – | –
CC[C@@H]1NC(=O)[C@H](CCCCN)NC(=O)[C@@H](Cc2c[nH]c3ccccc23)NC(=O)[C@H](Cc2ccc(O)cc2)NC(=O)[C@@H](NC(=O)[C@@H](Cc2ccccc2)NC(=O)CN2CCN(CCO)CC2)CSSC[C@@H](C(=O)N[C@H](C(N)=O)[C@@H](C)O)NC1=O [BIM-23190] | did not affect prolactin release | failed to respond | modestly stimulated prolactin production | – | – | –
C[C@@H](O)[C@@H]1NC(=O)[C@H](CCCCN)NC(=O)[C@@H](Cc2c[nH]c3ccccc23)NC(=O)[C@H](Cc2ccccc2)NC(=O)[C@H](Cc2ccccc2)NC(=O)[C@@H](N)CSSC[C@@H](C(N)=O)NC(=O)[C@H](Cc2ccccc2)NC1=O [BIM-23268] (H-CFF[dW]KTFC-NH2; disulfide 1-8) | – | suppression of prolactin secretion | – | 38 | up to 29% | more than 30%
C[C@@H](O)[C@H](NC(=O)[C@H](Cc1ccccc1)NC(=O)[C@@H](NC(=O)[C@H](CCCCN)NC(=O)[C@@H](Cc1c[nH]c2ccccc12)NC(=O)[C@H](Cc1ccccc1)NC(=O)[C@H](Cc1ccccc1)NC(=O)[C@H](N)Cc1ccccc1)[C@@H](C)O)C(N)=O [BIM-23052, H-D-Phe-Phe-Phe-D-Trp-Lys-Thr-Phe-Thr-NH2] (H-[dF]FF[dW]KTFT-NH2) | – | suppression of prolactin secretion | – | – | – | more than 30%
C[C@@H](O)[C@@H]1NC(=O)[C@H](CCCCN)NC(=O)[C@@H](Cc2c[nH]c3ccccc23)NC(=O)[C@H](Cc2ccccc2)NC(=O)[C@@H](NC(=O)[C@H](N)Cc2ccccc2)CSSC[C@@H](C(=O)N[C@H](CO)[C@@H](C)O)NC1=O [Octreotide] | – | failed to respond | – | – | – | –

Source: EP0979098B1, “METHOD OF TREATING HYPERPROLACTINEMIA AND PROLACTINOMAS” (Cedars-Sinai Medical Center, priority 1997, dated 1998)
